“Also recorded” adds a separate entry of the source.
Assays:
[1] = Kinetic solubility in FaSSGF, FaSSIF and FeSSIF media; type: physicochemical; settings: kinetic from dmso stock
Method: The solubility of the compound of Formula I is also tested under conditions that simulate gut fluids (Fasted State Simulated Intestinal Fluid [FaSSIF], Fed State Simulated Intestinal Fluid [FeSSIF], and Fasted State Simulated Gastric Fluid [FaSSGF]) as shown in Table 9.

[2] = Solubility screening in lipid vehicles; type: physicochemical
Method: The solubility of the compound of Formula I in lipid vehicles is also examined. The compound of Formula I Form A is added into a clear, 20 mL glass vials followed by the corresponding excipients, e.g., MIGLYOL® 812 (saturated coconut and palmkernel oil-derived caprylic and capric fatty acids and glycerin, e.g., C8 and C10 triglycerides), CAPMUL® MCM EP (glyceryl monocaprylocaprate type I (EP)), PECEOL™ (glycerol monooleates (type 40) EP, glyceryl monooleate (type 40) NF), LABRAFIL® M2125CS (linoleoyl polyoxyl-6 glycerides), LAUROGLYCOL™ FCC (propylene glycol monolaurate (type I)), Span® 80 (sorbitane monooleate), PHOSAL® 53 MCT (lecithin in caprylic/capric triglycerides, alcohol, glyceryl stearate, oleic acid, and ascorbyl palmitate), or capmul PG-8 (propylene glycol monocaprylate). The samples are then homogenized with a handheld homogenizer for 10 minutes until the compound of Formula I is visibly dissolved. […] A set of matching control formulations are also prepared.

BRK = biological target: T1, BRK (Homo sapiens, UniProt Q13882); assay: Kinase selectivity, radiolabeled ATP activity assay; type: biochemical
T1 construct: purchased Reaction Biology
Method: (§1) Each assay is performed at an ATP concentration close to the Km for each enzyme. […] BRK, CSK, ERBB4, FYN, MEK1, MEK2, TXK, and YES1 The inhibitory activity of the compound of Formula I on the enzymatic activity of these kinases and TEC is determined using a radiolabeled ATP activity assay conducted with an ATP concentration near the ATP Km for each enzyme. After co-incubation with a serial dilution of the compound of Formula I, the quantity of ^33P incorporated into a peptide substrate is measured and the data analyzed using standard curve fitting methods.

ERBB4 = biological target: T2, ERBB4 (Homo sapiens, UniProt Q15303); assay: as above; type: biochemical
T2 construct: purchased Reaction Biology
Method: as §1

MEK2 = biological target: T3, MEK2 (Homo sapiens, UniProt P36507); assay: as above; type: biochemical
T3 construct: purchased Reaction Biology
Method: as §1

TXK = biological target: T4, TXK (Homo sapiens, UniProt P42681); assay: as above; type: biochemical
T4 construct: purchased Reaction Biology
Method: as §1

MEK1 = biological target: T5, MEK1 (Homo sapiens, UniProt Q02750); assay: as above; type: biochemical
T5 construct: purchased Reaction Biology
Method: as §1

CSK = biological target: T6, CSK (Homo sapiens, UniProt P41240); assay: as above; type: biochemical
T6 construct: purchased Reaction Biology
Method: as §1

YES1 = biological target: T7, YES1 (Homo sapiens, UniProt P07947); assay: as above; type: biochemical
T7 construct: purchased Reaction Biology
Method: as §1

FYN = biological target: T8, FYN (Homo sapiens, UniProt P06241); assay: as above; type: biochemical
T8 construct: purchased Reaction Biology
Method: as §1

TEC = TEC (Homo sapiens, UniProt P42680); assay: as above; type: biochemical; settings: ATP near Km
Method: as §1

[3] = system: OCI-Ly10 human B-cell lymphoma cell line xenograft; assay: Tumor growth inhibition in OCI-Ly10 xenografts; type: in vivo, male NOD SCID mice; settings: for tumor growth during the dosing period: oral, 28 days
Method: A total of 65 male NOD-SCIO mice are used for the study. At the start of the study the animals are aged 6-8 weeks and weighed approximately 21-27 g. Animals are housed in IVC cages (up to 5 per cage) with individual mice identified by tail marking. All animals are allowed free access to a standard certified commercial diet and sanitized water during the study. The holding room is maintained under standard conditions: 20-24° C., 40-70% humidity and a 12 hr light/dark cycle. Animals are randomly assigned to treatment groups. OCI-Lyl0 cells are implanted subcutaneously into the flanks of male NOD SCID mice and allowed to grow to a volume of approximately 150-200 mm^3. […] The formulation used is 0.5% hydroxypropyl methylcellulose. The dosing volume is 10 mL/kg. An individual animal's dose is calculated from the bodyweight recorded on the day of dosing. Animals are dosed for 28 days. Bodyweight and health observation of animals is recorded daily for the duration of dosing.
Tumor volume is measured three times per week during the study.

[4] = Aqueous solubility at different pH values; type: physicochemical
[5] = FaSSGF (Fasted State Simulated Gastric Fluid), fassgf or other biorelevant, pH 1.6 FaSSGF
[6] = FaSSIF (Fasted State Simulated Intestinal Fluid), pH 6.5 FaSSIF
[7] = FeSSIF (Fed State Simulated Intestinal Fluid), pH 6.5 FeSSIF
[8] = 1.0 μM compound, ATP close to Km, read-out: Percent of Control (POC)

T8 sequence (P06241 whole entry): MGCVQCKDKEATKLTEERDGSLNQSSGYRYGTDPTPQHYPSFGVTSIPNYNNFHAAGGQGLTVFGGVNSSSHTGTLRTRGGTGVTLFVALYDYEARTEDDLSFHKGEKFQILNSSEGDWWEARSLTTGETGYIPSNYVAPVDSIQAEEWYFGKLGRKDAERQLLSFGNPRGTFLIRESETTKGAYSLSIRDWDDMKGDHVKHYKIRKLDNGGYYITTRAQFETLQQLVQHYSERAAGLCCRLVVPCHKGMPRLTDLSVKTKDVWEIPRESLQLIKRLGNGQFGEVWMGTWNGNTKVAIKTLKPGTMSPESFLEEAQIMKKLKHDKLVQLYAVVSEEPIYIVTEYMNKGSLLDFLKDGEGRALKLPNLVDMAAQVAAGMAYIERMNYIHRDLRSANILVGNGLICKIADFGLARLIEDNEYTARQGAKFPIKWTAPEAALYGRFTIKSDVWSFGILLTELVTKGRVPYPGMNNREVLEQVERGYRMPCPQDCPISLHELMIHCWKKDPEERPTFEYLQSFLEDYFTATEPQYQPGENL
T5 sequence (Q02750 whole entry): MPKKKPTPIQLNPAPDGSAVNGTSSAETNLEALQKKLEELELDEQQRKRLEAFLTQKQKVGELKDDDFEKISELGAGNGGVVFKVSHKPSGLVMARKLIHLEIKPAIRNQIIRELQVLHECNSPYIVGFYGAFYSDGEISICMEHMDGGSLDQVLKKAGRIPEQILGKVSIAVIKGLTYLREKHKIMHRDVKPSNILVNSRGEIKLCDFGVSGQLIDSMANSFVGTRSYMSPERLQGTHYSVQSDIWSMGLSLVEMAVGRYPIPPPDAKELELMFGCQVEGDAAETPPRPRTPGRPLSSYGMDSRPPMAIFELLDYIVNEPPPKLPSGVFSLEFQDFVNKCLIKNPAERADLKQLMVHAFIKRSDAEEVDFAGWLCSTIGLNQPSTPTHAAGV
T1 sequence (Q13882 whole entry): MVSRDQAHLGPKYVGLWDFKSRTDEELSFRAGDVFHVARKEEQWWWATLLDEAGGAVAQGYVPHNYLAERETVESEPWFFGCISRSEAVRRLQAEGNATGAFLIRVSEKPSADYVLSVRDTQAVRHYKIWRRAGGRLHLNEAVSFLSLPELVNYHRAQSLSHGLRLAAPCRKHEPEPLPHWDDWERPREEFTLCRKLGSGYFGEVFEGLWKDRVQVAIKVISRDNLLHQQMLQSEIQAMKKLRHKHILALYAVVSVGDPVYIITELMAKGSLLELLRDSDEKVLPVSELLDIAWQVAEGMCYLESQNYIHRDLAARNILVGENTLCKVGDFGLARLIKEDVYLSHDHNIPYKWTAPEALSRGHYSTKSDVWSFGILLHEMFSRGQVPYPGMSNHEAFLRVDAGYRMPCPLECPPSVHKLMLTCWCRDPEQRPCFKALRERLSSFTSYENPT
T2 sequence (Q15303 26-1308): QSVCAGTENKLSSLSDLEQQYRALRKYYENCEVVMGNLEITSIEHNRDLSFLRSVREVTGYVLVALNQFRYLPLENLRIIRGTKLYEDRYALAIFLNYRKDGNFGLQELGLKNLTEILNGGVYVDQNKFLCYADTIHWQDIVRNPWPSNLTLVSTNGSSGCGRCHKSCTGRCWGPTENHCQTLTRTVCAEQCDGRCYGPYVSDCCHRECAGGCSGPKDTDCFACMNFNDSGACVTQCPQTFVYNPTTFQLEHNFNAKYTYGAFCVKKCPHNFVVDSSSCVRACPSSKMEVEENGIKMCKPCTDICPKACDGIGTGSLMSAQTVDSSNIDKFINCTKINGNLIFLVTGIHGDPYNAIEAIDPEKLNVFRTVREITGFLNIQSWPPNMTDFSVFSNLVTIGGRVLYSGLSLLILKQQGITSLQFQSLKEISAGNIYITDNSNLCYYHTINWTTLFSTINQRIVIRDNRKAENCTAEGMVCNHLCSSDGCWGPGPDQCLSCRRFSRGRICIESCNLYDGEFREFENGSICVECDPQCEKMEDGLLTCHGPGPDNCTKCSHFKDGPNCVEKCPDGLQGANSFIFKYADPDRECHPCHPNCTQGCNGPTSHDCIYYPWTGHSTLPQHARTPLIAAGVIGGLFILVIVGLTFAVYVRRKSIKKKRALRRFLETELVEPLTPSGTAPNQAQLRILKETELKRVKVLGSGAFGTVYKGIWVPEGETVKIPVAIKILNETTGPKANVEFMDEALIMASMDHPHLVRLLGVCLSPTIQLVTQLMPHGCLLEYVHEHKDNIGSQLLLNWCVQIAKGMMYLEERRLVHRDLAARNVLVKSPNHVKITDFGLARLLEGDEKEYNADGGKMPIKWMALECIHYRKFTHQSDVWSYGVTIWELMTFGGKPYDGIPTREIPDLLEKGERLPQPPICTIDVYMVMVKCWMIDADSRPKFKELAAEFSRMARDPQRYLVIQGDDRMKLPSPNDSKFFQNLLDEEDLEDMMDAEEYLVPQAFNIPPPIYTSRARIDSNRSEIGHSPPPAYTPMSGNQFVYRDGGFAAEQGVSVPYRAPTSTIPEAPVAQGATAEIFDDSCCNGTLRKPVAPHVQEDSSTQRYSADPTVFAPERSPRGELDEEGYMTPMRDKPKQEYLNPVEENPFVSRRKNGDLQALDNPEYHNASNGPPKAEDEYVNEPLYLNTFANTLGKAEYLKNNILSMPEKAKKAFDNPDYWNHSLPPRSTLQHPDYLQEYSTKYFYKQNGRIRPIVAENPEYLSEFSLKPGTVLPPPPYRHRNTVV
T7 sequence (P07947 whole entry): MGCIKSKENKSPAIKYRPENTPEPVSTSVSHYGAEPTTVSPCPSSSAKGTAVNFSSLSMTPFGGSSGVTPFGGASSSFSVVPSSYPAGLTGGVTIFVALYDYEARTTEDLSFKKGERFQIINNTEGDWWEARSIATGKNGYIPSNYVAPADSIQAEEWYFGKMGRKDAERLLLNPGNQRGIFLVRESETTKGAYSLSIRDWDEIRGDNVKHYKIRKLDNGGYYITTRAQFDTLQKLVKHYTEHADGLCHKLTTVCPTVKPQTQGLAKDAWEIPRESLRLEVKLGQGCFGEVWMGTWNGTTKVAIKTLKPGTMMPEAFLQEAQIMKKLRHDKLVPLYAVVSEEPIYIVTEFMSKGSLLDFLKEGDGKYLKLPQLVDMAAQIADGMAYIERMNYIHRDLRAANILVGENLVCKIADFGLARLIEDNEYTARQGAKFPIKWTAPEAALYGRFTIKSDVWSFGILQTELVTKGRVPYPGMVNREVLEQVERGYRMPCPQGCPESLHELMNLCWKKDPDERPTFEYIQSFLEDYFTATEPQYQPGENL
T6 sequence (P41240 whole entry): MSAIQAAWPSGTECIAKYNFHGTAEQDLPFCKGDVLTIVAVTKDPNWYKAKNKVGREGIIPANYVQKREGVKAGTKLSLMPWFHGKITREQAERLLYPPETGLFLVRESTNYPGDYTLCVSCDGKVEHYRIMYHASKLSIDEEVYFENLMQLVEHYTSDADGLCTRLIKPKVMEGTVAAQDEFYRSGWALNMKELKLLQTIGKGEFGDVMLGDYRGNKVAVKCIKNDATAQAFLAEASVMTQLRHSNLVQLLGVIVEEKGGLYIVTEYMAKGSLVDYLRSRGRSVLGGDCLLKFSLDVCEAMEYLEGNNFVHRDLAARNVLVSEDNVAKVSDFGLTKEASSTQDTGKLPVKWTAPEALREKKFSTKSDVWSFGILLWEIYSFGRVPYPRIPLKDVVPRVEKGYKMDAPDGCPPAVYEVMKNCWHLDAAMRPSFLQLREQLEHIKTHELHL
T4 sequence (P42681 whole entry): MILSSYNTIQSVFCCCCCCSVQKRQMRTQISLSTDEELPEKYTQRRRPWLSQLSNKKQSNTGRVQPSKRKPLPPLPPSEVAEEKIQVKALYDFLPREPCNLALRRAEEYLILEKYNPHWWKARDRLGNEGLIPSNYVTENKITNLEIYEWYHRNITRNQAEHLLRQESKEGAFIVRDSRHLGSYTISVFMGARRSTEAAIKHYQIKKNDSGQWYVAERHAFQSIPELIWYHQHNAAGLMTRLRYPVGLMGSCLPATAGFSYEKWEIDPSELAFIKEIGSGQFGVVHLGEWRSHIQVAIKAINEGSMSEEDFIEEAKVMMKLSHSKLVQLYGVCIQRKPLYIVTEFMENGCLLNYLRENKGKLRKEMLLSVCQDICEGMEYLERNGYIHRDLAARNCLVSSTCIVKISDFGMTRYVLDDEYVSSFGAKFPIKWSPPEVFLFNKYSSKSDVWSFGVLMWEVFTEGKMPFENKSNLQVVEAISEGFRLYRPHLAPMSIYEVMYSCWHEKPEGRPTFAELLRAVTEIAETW
T3 sequence (P36507 whole entry): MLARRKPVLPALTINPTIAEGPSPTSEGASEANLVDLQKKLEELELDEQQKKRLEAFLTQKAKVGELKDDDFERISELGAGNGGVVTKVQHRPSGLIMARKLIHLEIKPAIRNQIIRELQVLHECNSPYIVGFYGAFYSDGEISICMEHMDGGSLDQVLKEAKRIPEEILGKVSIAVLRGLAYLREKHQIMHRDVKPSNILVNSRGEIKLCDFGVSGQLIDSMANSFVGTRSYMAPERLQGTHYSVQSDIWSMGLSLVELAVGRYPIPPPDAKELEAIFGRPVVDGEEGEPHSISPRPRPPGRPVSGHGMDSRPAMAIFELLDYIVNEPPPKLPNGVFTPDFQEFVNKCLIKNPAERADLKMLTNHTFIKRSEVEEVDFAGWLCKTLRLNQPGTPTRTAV

COc1ccc(F)cc1C(=O)NCc1ccc(-c2nn([C@@H](C)C(F)(F)F)c(N)c2C(N)=O)cc1 [compound of Formula I, (S)-5-amino-3-(4-((5-fluoro-2-methoxybenzamido)methyl)phenyl)-1-(1,1,1-trifluoropropan-2-yl)-1H-pyrazole-4-carboxamide]
solubility kinetic at 4 h [1, 5]: 22 µg/mL | solubility kinetic at 24 h [1, 5]: 24 µg/mL | solubility kinetic at 4 h [1, 6]: 23 µg/mL | solubility kinetic at 24 h [1, 6]: 20 µg/mL | solubility kinetic at 4 h [1, 7]: 44 µg/mL | solubility kinetic at 24 h [1, 7]: 47 µg/mL | HPLC Solubility ([2]; CAPMUL ® MCM EP, 40 °C): 33.3 mg API per g mixture | HPLC Solubility ([2]; Capmul PG-8, 25 °C): 30.3 mg API per g mixture | HPLC Solubility ([2]; Glycerine, 25 °C): 0.5 mg API per g mixture | HPLC Solubility ([2]; KOLLIPHOR ® EL, 25 °C): 46.2 mg API per g mixture | HPLC Solubility ([2]; LABRAFIL ® M2125CS, 25 °C): 3.2 mg API per g mixture | HPLC Solubility ([2]; LABRASOL ® ALF, 25 °C): 104.1 mg API per g mixture | HPLC Solubility ([2]; LAUROGLYCOL ™ FCC, 25 °C): 5.1 mg API per g mixture | HPLC Solubility ([2]; Long chain triglycerides/long chain lipid digestion products, 25 °C): 0.02 mg API per g mixture | HPLC Solubility ([2]; MIGLYOL ® 812, 25 °C): 0.62 mg API per g mixture | HPLC Solubility ([2]; Medium chain triglycerides/medium chain lipid digestion products, 25 °C): 0.02 mg API per g mixture | HPLC Solubility ([2]; Oleic acid, 25 °C): 1.2 mg API per g mixture | HPLC Solubility ([2]; PECEOL ™, 40 °C): 6.6 mg API per g mixture | HPLC Solubility ([2]; PEG-400 (Macrogol 400), 25 °C): 168.9 mg API per g mixture | HPLC Solubility ([2]; PHOSAL ® 53 MCT, 25 °C): 11.3 mg API per g mixture | HPLC Solubility ([2]; Polysorbate 80/Tween-80, 25 °C): 43.6 mg API per g mixture | HPLC Solubility ([2]; Propylene glycol, 25 °C): 29.4 mg API per g mixture | HPLC Solubility ([2]; SPAN ® 80, 25 °C): 6.2 mg API per g mixture | HPLC Solubility ([2]; Sesame oil, 25 °C): 0.07 mg API per g mixture | HPLC Solubility ([2]; Vitamin E-TPGS NF, 40 °C): 43.1 mg API per g mixture | excipients in which solubility is best ([2]; excipient screen for lipid-based formulations): best in PEG 400, LABRASOL® ALF (e.g., caprylocaproyl polyoxyl-8 glycerides), KOLLIPHOR® EL (e.g., polyoxyl castor oil), Tween 80, and Vitamin E TPGS; also recorded: most soluble in LABRASOL® ALF and PEG-400 | remaining activity at 1 µM (BRK; [8]): < 50% | IC50 (BRK; ATP near Km): 54.2 nM | remaining activity at 1 µM (ERBB4; [8]): < 50% | IC50 (ERBB4; ATP near Km): 13.2 nM | remaining activity at 1 µM (MEK2; [8]): < 50% | IC50 (MEK2; ATP near Km): 82.7 nM | remaining activity at 1 µM (TXK; [8]): < 50% | IC50 (TXK; ATP near Km): 209 nM | remaining activity at 1 µM (MEK1; [8]): < 50% | IC50 (MEK1; ATP near Km): 147 nM | remaining activity at 1 µM (CSK; [8]): < 50% | IC50 (CSK; ATP near Km): 552 nM | remaining activity at 1 µM (YES1; [8]): < 50% | IC50 (YES1; ATP near Km): 157 nM | remaining activity at 1 µM (FYN; [8]): < 50% | IC50 (FYN; ATP near Km): 1710 nM | IC50 (TEC): 1230 nM | tumor growth during the dosing period ([3]; 10 mg/kg BID): inhibition of tumor growth | tumor size compared with ibrutinib-treated animals ([3]; 10 mg/kg BID, p=0.0008, ANOVA with Tukey post-hoc test): significantly smaller than those from animals treated with ibrutinib | tumor growth during the dosing period ([3]; 50 mg/kg BID): inhibition of tumor growth | tumor size compared with ibrutinib-treated animals ([3]; 50 mg/kg BID, p<0.0001, ANOVA with Tukey post-hoc test): significantly smaller than those from animals treated with ibrutinib | tumor growth after dosing had stopped ([3]; after the 28-day dosing period): maintained even after dosing had stopped | solubility ([4]; aqueous solution, aqueous buffer, between pH 1 to pH 10): 14 to 17 µg/mL | solubility ([4]; aqueous solution, aqueous buffer, pH 3, actual media pH 3.03): 14 µg/mL | solubility ([4]; aqueous solution, aqueous buffer, pH 4, actual media pH 4.04): 14 µg/mL | solubility ([4]; aqueous solution, aqueous buffer, pH 6, actual media pH 6.04): 14 µg/mL | solubility ([4]; aqueous solution, aqueous buffer, pH 8, actual media pH 8.02): 14 µg/mL | solubility ([4]; aqueous solution, aqueous buffer, pH 10, actual media pH 9.98): 14 µg/mL | solubility ([4]; aqueous solution, simulated gastric fluid, pH 1.5, actual media pH 1.49): 15 µg/mL | solubility ([4]; aqueous solution, simulated gastric fluid, pH 2, actual media pH 2.06): 15 µg/mL | solubility ([4]; simulated gastric fluid, (0.1 N HCl) pH 1, actual media pH 1.09): 17 µg/mL

From patent US12268666B2, “Spray-dried dispersions, formulations, and polymorphs of (S)-5-amino-3-(4-((5-fluoro-2-methoxybenzamido)methyl)phenyl)-1-(1,1,1-trifluoropropan-2-yl)-1H-pyrazole-4-carboxamide” (Loxo Oncology, Inc., priority 2018, dated 2025)
